Values quoted from earlier work in patent US10603272B2, “Stimulation of appetite and treatment of anorexia in dogs and cats” (Kindred Biosciences, Inc., priority 2015, dated 2020).

solubility in water: insoluble in water
SMILES: CN1CCN2c3ncccc3Cc3ccccc3C2C1 (stereo not shown) [mirtazapine]
